Data as given in BindingDB's records for doi:10.7270/Q22V2DK6 (The Scripps Research Institute Molecular Screening Center, 2010).

Biological target: T1, Caspase-7 (Homo sapiens, UniProt P55210)
T1 sequence (P55210 whole entry): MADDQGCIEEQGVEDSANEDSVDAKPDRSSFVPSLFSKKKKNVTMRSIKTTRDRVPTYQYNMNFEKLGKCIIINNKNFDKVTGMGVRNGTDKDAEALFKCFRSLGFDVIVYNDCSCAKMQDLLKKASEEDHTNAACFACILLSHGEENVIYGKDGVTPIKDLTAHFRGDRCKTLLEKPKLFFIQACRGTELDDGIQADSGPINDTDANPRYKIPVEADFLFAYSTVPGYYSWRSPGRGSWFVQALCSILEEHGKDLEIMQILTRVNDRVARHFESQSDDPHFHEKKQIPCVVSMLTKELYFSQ
Assay: procaspase-7 activators, dose response, counter-screen for procaspase-3 activator project, biochemical, absorbance (AID 489013)

Compound	EC50 [µM]
O=c1c2c(-c3ccccc3)[nH]n(-c3ccccc3)c-2c(O)n1-c1ccccc1 [SMR000269383]	> 85.3
O=C(CC1=NC2(CCCC2)Cc2ccccc21)C(=O)NN=Cc1ccccc1O [SMR000219463]	> 85.3
